Tested on: human CRP
Assay: CRP serum levels in CRP transgenic mice (ELISA)
Type: in vivo, C57BL/6J congenic CRP transgenic mice that express human CRP
Details: daily oral gavage for 14 days, serum at Day 15, vs saline vehicle, n=10
Description: The experiment was conducted to determine the effect of the growth hormone secretagogue RC-1141 on CRP serum levels. The compound RC-1141 was tested in C57BL/6J congenic CRP transgenic mice that express human CRP.
The establishment of a breeding colony of CRPtg C57BL/6J congenic mice has been described in Szalai, A. et al., “Human C-Reactive Protein is Protective Against Fatal Streptococcus pneumoniae Infection in Transgenic Mice,” J. Immunol. 155:2557-2563 (1995), the entire content of which is hereby incorporated by reference. The breeding colony was established by mating transgenic founder males with normal female C57BL/6J mice. The normal female C57BL/6J mice were obtained from Charles River Laboratories (Boston, Mass.). Transgenic founders were obtained from Dr. Ulrich Ruther (Institut für Molekularbiologie, Medizinische Hochschule, Hannover, Germany), and were descendants of transgenic mice originally described by Ciliberto, G., R. Arcone, E. F. Wagner, U. Rüther, “Inducible and tissue-specific expression of human C-reactive protein in transgenic mice” EMBO J, 6:4017 (1987), the entire content of which is hereby incorporated by reference. […]
CRP serum levels were measured using ELISA. […]
Concentration was determined by the ELISA described above. […]

Compound: CN(C(=O)/C=C/CC1(N)CCC1)[C@H](Cc1ccc(-c2ccccc2)cc1)C(=O)N(C)[C@H](Cc1ccccc1)C(=O)N1CCC(O)CC1 [RC-1141, (2E)-4-(1-aminocyclobutyl)but-2-enoic acid N-((1R)-1-{N-[(1R)-1-benzyl-2-(4-hydroxypiperidin-1-yl)-2-oxoethyl]-N-methylcarbomoyl}-2-(biphenyl-4-yl)ethyl)-N-methylamide]
- CRP serum levels (5 mg/kg body weight (low dose)): significant decrease
- CRP serum levels (10 mg/kg body weight (high dose)): significant decrease
